# Laboratory results from patent US9775844B2, “Heterocyclic compounds and uses thereof” (Infinity Pharmaceuticals, Inc., priority 2014, dated 2017).
# How the values were obtained:
# [1] = system: collagen induced arthritis; test: Rat collagen induced arthritis (CIA) model; assay type: in vivo
# [2] = system: MC38 tumor cells; test: MC38 colon cancer model; assay type: in vivo, mouse
# Protocol: In this model, a syngeneic colon cancer cell line is run subcutaneously. The experimental setup was as follows.
# The cell injection volume was 0.05 ml per mouse. When tumors reached an average size of 80-100 mm^3, a pair match was made and treatment began. The tumor was measured by caliper biweekly.
# The dosing volume was 5 mL/kg.
# For all animals, blood was collected by terminal cardiac puncture under isoflurane anesthesia. The blood was processed for plasma. In addition, tumor samples were collected.
# At study end, tumors were isolated, fixed in 10% neutral buffered formalin and embedded in paraffin for histologic analysis. […] T-cells within the tumor sections were identified utilizing a CD3-specific antibody via automated immunohistochemistry equipment (Ventana). Once stained, slides were digitalized via Aperio slide scanning equipment. Next, stained tumor sections were quantified via Definians software to assess the percentage of CD3 positive cells within each tumor.
# [3] = system: Cyp; test: Cyp Induction (activity and mRNA); assay type: in vitro ADME
# [4] = system: 4T1; test: 4T1 breast cancer model
# [5] = system: M2 macrophage markers VEGF and ARG-1; test: M2 macrophage marker expression with or without PDL-1 antibody (FIG. 42)
# [6] = system: Cytochrome P450 isoforms (all main CYPs); test: Cytochrome P450 inhibition; assay type: in vitro ADME; conditions: reversible inhibition, all Cyps; read-out: Rev Cyp Inhibition IC50
# Excerpt: (§1) These properties indicate the compound's suitability for in vivo administration.
# [7] = system: Cytochrome P450 isoforms; test: Cytochrome P450 inhibition; assay type: in vitro ADME
# Excerpt: as §1
# [8] = system: GL-261; test: GL-261 glioma model with or without temozolomide; assay type: in vivo, mouse
# Protocol: TMZ was dosed IP 1×/day for 7 days.
# Animals: C57 Albino mice (male) from Jackson Labs, n=80. Parameters Evaluated:
# In life: Mice were dosed QD with Compound BB. Temozolomide was dosed QD IP, for 7 days. Tumor measurements and bodyweights were taken 2×/week, but caliper and xenogen measurements.
# End point analysis: Tumors were cut in half. One half was cut in half again with 1/2 fixed in 10% NBF the other was frozen in OCT for frozen sections. The remaining half was processed to single cell suspention and evaluated by FACS.
# PD satilite group—8 mice from the TMZ treated mice and 8 mice from the vehicle treated mice were sacrificed on day 7 post treatment. Tumors were processed to single cell suspention and evaluated by FACS.
# [9] = Pharmacokinetics in dog, oral; assay type: in vivo; conditions: 5 mg/kg oral
# Excerpt: Compound BB's oral exposure is high in rat, dog and monkey. Good oral bioavailability and low clearance in rodent and non-rodent animal species results in high oral exposure.
# [10] = Oral exposure in the dog; assay type: in vivo
# [11] = system: 4T1 breast cancer; test: Orthotopic 4T1 breast cancer model; assay type: in vivo; conditions: Compound BB and/or PDL-1 inhibition
# [12] = system: CXCL12 stimulated pAKT in T cells and monocytes; test: Ex vivo whole blood CXCL12 stimulation of phospho-AKT, LLC-bearing mice; assay type: in vivo, mouse; conditions: 12 days QD PO, 2 h post dose
# Protocol: C57 BL/6 Albino mice were implanted with 1×10^6 cells in a SC injection in the hind flank. The cell implant material was generated from brei that was passaged from mouse to mouse. Treatment started when tumors were between 160-180 mm^3 Mice were dosed for 12 days, QD, PO with vehicle, 15, 7.5 or 3 mg/kg. On day 12 mice were dosed and terminal blood was collected 2 h post dose by cardiac stick collection. Blood was placed in EDTA K2 collection tube and stored at room temp for PD analysis.
# Blood from each animal was aliquotted into 2 plates and warmed to 37° C. degrees. PBS was added to one plate as an unstimulated control. Murine CXCL12/SDF-1 was added to the second plate to a final concentration of 800 ng/mL and plate was returned to the 37° C. degree block. After 2 minutes of incubation, blood was lysed and fixed using paraformaldehyde. Samples were washed and frozen until flow cytometric analysis. T cells were gated using an antibody to CD3 and monocytes were gated as LY6G^− LY6C^high. Intracellular pAKT […] was measured and percent positive was used for graphing.
# [13] = Hepatocyte stability (Hep t1/2); assay type: in vitro ADME; conditions: hepatocytes, all species (incl rat); read-out: M, C, D, H Hep (t1/2, min)
# [14] = system: KPC Pancreatic Cancer cells; test: RNA expression profiling (TLDA) of KPC pancreatic cancer tumors; assay type: in vivo, mouse
# Protocol: RNA expression profiling was performed for immuno-phenotyping with a Taqman low density array (TLDA).
# For mouse tumors, snap frozen samples were powdered with a Genogrinder at liquid nitrogen temperatures and RNA was isolated with Trizol. Next, the sample was cleaned-up using Qiashredder, and then using a RNeasy kit.
# CT values were used for analysis. For each sample Si and each gene, the following values were calculated: dCT(Si,gene)=CT(Si,gene)−CT(Si,ACTB) ddCT(Si,gene)=dCT(Si,gene)−median(dCT(vehicle treated samples, gene)) RQ(Si, gene)=2^(−ddCT(Si,gene))
# This produced a matrix of RQ values: 48 genes (rows)×39 samples (cols).
# The analysis used R package Non-negative Matrix Factorization (NMF) with rank=3 and the “lee” algorithm.
# [15] = system: CT26 colon cancer; test: CT26 colon cancer model; assay type: in vivo, mouse
compound,measurement,setting,value
C[C@H](NC(=O)c1c(N)nn2cccnc12)c1cc2cccc(C#Cc3cnn(C)c3)c2c(=O)n1-c1ccccc1 [Compound BB],bone resorption score reduction,[1]; 0.5 mg/kg,25%
same,cartilage damage score reduction,[1]; 0.5 mg/kg,28%
same,inflammation score reduction,[1]; 0.5 mg/kg,27%
same,pannus score reduction,[1]; 0.5 mg/kg,28%
same,periosteal bone formation score reduction,[1]; 0.5 mg/kg,52%
same,periosteal bone widths reduction,[1]; 0.5 mg/kg,47%
same,reduction in summed scores,"[1]; 0.5 mg/kg, non-significant",31%
same,reduction of scored parameters,"[1]; 0.5 mg/kg, non-significant",27-52%
same,bone resorption score reduction,[1]; 1.5 mg/kg,44%
same,cartilage damage score reduction,[1]; 1.5 mg/kg,45%
same,inflammation score reduction,[1]; 1.5 mg/kg,36%
same,pannus score reduction,[1]; 1.5 mg/kg,44%
same,periosteal bone formation score reduction,[1]; 1.5 mg/kg,52%
same,periosteal bone widths reduction,[1]; 1.5 mg/kg,50%
same,reduction in summed scores,"[1]; 1.5 mg/kg, significant",42%
same,bone resorption score reduction,[1]; 5 mg/kg,65%
same,cartilage damage score reduction,[1]; 5 mg/kg,59%
same,inflammation score reduction,[1]; 5 mg/kg,57%
same,pannus score reduction,[1]; 5 mg/kg,71%
same,periosteal bone formation score reduction,[1]; 5 mg/kg,82%
same,periosteal bone widths reduction,[1]; 5 mg/kg,82%
same,reduction in summed scores,"[1]; 5 mg/kg, significant",64%
same,reductions in all scores,"[1]; 5 mg/kg, significant",57-82%
same,mean ankle diameter,"[1]; day 9 to day 17, FIG. 1",therapeutic effects
same,intratumoral CD3+ T cells,"[2]; MC38 tumors vs vehicle, IHC",significantly more intratumoral CD3+T cells
same,"tumor growth, MC38 colon cancer model","[2]; monotherapy, FIG. 29A",significantly inhibited tumor growth
same,Cyp Induction @ 10 uM,[3],Neg (activity and mRNA)
same,"tumor growth, orthotopic 4T1 breast cancer model","[4]; 7.5 mg/kg PO once daily, FIG. 33A",reduced tumor growth
same,"total luciferase flux, orthotopic 4T1 breast cancer model","[4]; 7.5 mg/kg PO once daily, FIG. 33B",reduced total luciferase flux
same,"tumor growth, 4T1 model, alone or with chemotherapy","[4]; Compound BB 15 mg/kg PO QD 2 weeks, 5-FU 50 mg/kg, docetaxel 33 mg/kg, paclitaxel 10 mg/kg IP",reduction in tumor growth
same,"anti-tumor activity, subcutaneous 4T1 breast cancer model","[4]; single agent, FIG. 34",single agent activity
same,maintenance of anti-tumor effect after discontinuation of treatment,[4]; subcutaneous 4T1,at least 6 days
same,M2 macrophage marker ARG-1,[5],reduced
same,M2 macrophage marker VEGF,[5],reduced
same,IC50,[6],> 10 µM
same,CYP inhibition,[7],does not substantially inhibit CYP
same,reversible inhibition of main Cytochrome P450 isoforms,[7],low potential for reversible inhibition
same,Time dep Cyp Inhibition @ 10 uM,"[7]; time dependent, 10 uM",Neg
same,"tumor volume, GL-261, compared to vehicle",[8]; 15 mg/kg QD PO following TMZ @ 1 mg/kg,significant reduction in tumor volume
same,"tumor volume, GL-261, compared to vehicle","[8]; treated from the start of treatment, 15 mg/kg QD PO",significant reduction in tumor volume
same,oral exposure (plasma concentrations within 24 hours),[9],high
same,oral exposure,[10],high
same,total luciferase flux,[11],reduced total luciferase flux
same,tumor growth,[11],reduced tumor growth
same,ex vivo whole blood CXCL12 stimulation of phospho-AKT in T cells,[12],inhibits
same,ex vivo whole blood CXCL12 stimulation of phospho-AKT in monocytes,[12],inhibits
same,half-life,[13],> 240 min
same,M2 macrophage markers VEGF and ARG-1 (RNA),"[14]; 3 mg/kg, with or without PDL-1 antibody",trended towards reduction
same,T regulatory and T effector genes (RNA),[14]; alone,trend in lower T regulatory and T effector genes
same,MDSC expansion after cyclophosphamide treatment,[15]; CT26 colon cancer model,decreased
same,monocytic iMCs,[15]; CT26 subcutaneous tumors,decreased
